According to paper PMC9496346, “Controversial Role of Transferrin in the Transport of Ruthenium Anticancer Drugs” (Biomolecules, 2022):

How the values were obtained:
HepG2 cells = test: Cellular Ru uptake by HepG2 cells (ICP-MS); format: cell-based, human; conditions: HepG2, 60 μM Ru, 24 h; B2 vs B1
Experimental: Human hepatoma (HepG2) cells were originally received from the American Type Culture Collection (ATCC, Cat. No. HB-8065) and cultured as described previously. This cell line was used for Tf-dependent metal uptake studies because of the high expression levels of human TfR1 [43]. For treatments, the cells were grown to confluence in 24-well plates, using Advanced DMEM (Dulbecco’s modified Eagle’s minimal essential medium, Invitrogen Cat. No. 12491-015), supplemented with L-glutamine (2.0 mM), antibiotic-antimycotic mixture (100 mg mL^−1 penicillin, 100 mg mL^−1 steptomycin and 0.25 mg mL^−1 amphotericin B) and fetal calf serum (heat-inactivated, 2% v/v). Confluent cell layers were washed with serum-free treatment medium (DMEM, Invitrogen Cat. No. 19938-025), supplemented with glutamine, antibiotic-antimycotic mixture and 1.0 mg mL^−1 AlbuMax (Gibco Cat. No. 11020-021). […] After washing, the wells were filled with the treatment medium containing metal additions (detailed in B1–B9 of Table 1). The treatment media were sterilized by filtration through 0.2 µm membrane filters, and pre-equilibrated for 24 h at 310 K and 5% CO2 prior to the addition to cells, except for sample B1 that was used immediately after preparation. All the treatments were performed in triplicate, using random well positions to avoid experimental bias.
After 24 h incubation with the treatment media (B1–B9 in Table 1), the medium from each well was collected for the determination of Ru–protein binding and BLI analyses, and the wells were washed twice with PBS (0.50 mL/well). […]
The values of metal uptake were normalized using protein content in cell lysates. For protein determination, Bradford reagent (Sigma Cat. No B6916; 98 µL) was mixed with a small aliquot (2.0 µL) of each cell lysate, and the absorbance at 600 nm was measured using a Victor V3 plate reader. […] The test and calibration samples were analyzed in triplicate. […]

[1] = test system: protein in cell culture medium; test: Ru–protein binding in cell culture medium (gel filtration, GFAAS); format: in vitro ADME; conditions: basal medium with ~15 μM BSA, conditions B1 and B2
Experimental: An aliquot (50 µL) of cell culture medium from each well was passed through a separate Bio-Rad P6 centrifugal gel filtration column that was pre-saturated with PBS, according to manufacturer’s instructions. The eluants (50 ± 5 µL volume) contained protein-bound Ru fractions (>6 kDa molecular mass). The protein recovery, measured by Bradford assays, exceeded 95%. Another 50 µL sample of each medium was taken into separate tubes. Both the original and gel-filtered media samples were digested with 0.20 mL of 65% (v/v) HNO3 for 24 h. The digests were diluted with 0.75 mL of 0.10 M HCl, and the Ru content in the samples was determined by GFAAS. The percentage of protein binding was determined from the ratio of Ru content in the gel-filtered and original media samples [30, 31].

[2] = test system: T1, recombinant human transferrin receptor 1 (TfR1); test: BLI of Tf–TfR1 binding in dilute cell culture media after uptake experiments; conditions: apoTf 30 μM + KP1019 60 μM in DMEM with ~15 μM BSA, vs same medium with apoTf only
T1 construct: extracellular domain (Cyst89-Phe760), (His)6-tagged at the N-terminus; purchased Sino Biological, Beijing, China (TfR1)
Experimental: The effects of Ru complexes on the Tf cycle were determined by BLI using previously developed protocols. The instrument used was a single-channel BLItz analyser (ForteBio, Menlo Park, CA, USA) with a tube holder (250 µL solution volume) and Ni(II)–nta coated optical probes held at 295 ± 1 K. Measurements used the Advanced Kinetics mode. […] Solutions of metal–Tf adducts (typical final Tf concentrations 150 nM or 1.0 µM) were prepared in the binding buffer (Section 2.1). The pH 7.4 binding buffer was used for Tf binding and dissociation from the probe, and the pH 5.6 buffer (Section 2.1) was used to mimic the endosomal step of the Tf cycle. Metal–Tf solutions (A1–A9 in Table 1) were diluted 100–400-fold, cell culture media were diluted 30-fold, and human serum samples were diluted 200-fold with the binding buffer immediately before the BLI measurements. All BLI data were background corrected by using data from buffer only runs with the same TfR1-loaded optical probe. Consistent BLI results were obtained in at least two independent measurements, using different probes and different batches of Tf solutions. Calculations of the Tf–TfR1 binding constants were performed using the 1:1 binding model (BLItz software, Version 1.1, Forte-Bio 2013), which can be used as a reasonable approximation of the physiological 2:2 Tf–TfR1 binding mechanism at low Tf concentrations.
(a) BLI response curves for 1.0 µM of human Tf at 295 K in dilute cell culture media after Ru uptake experiments by HepG2 cells (Section 3.2 in the main text). Media (serum-free DMEM, containing 1.0 mg mL−1 BSA as a background protein, as well as KP1019 and/or Tf, as shown in the figure legend), were collected after the end of uptake experiments, then were diluted 30-fold with buffer (20 mM HEPES + 25 mM NaHCO3 + 140 mM NaCl, pH = 7.4) and applied to TfR1-loaded BLI probe. Designations of the steps in Tf cycle (A–D) correspond to those in Figure 1d-f, main text. Calculated KD values (1:1 binding model, BLItz software) were as […]

[3] = cited from earlier work

Structure (SMILES): [Cl-].[Cl-].[Cl-].[Cl-].[Ru+3].c1ccc2[nH][nH+]cc2c1.c1ccc2[nH]ncc2c1.c1ccc2[nH]ncc2c1 [KP1019, (IndH)[Ru^IIICl4(Ind)2]]
- Decrease in Ru uptake after decomposition in cell culture medium for 24 h prior to addition to cells, vs fresh solution (HepG2 cells): ~ 30 fold
- Protein-bound proportion of KP1019 decomposition products in basal medium [1]: ~ 50%
- Effect on Tf–TfR1 binding in cell culture medium [2]: did not have a major effect
- Tf binding of KP1019 decomposition products in blood serum, share of total Ru ([3]; human pharmacokinetic studies): 1–2%
- Typical peak Ru concentrations in the blood of patients ([3]; patients treated with KP1019 in clinical trials): 0.1 to 0.4 mM
